For 22 compounds, MIC and CC50 results are on record in US8367831B2, “Heterocyclic compound or salt thereof and intermediate thereof” (priority 2006, dated 2013).

≈ marks a conversion by molar mass, not a printed value. Where a name gives a salt, the structure may show the parent alone. Read-outs that look alike come from different tables or passages of the source.

What all share (type): cell-based
The subject of series [1] is S. aureus FDA209P. The series is described as follows: Susceptibility test 1: MIC by micro-dilution method. Conditions: Staphylococcus aureus, read-out: MIC (μg/mL) S. aureus FDA209P. As to the method: (§1) Test substances were initially dissolved in dimethylsulfoxide. Antibacterial activities (MICs) of the same compounds were determined by the micro-dilution method as recommended by the Japanese Society of Chemotherapy.
(§2) The bacteria cultured on Mueller-Hinton agar (MHA) plates at 35° C. overnight were suspended in sterile physiological saline in a concentration that was equivalent to 0.5 McFarland. The bacterial inoculum was prepared by 10-fold dilution of this suspension. Approximately 0.005 mL of the bacterial inoculum was inoculated into Cation-adjusted Mueller-Hinton broth (CAMHB, 100 μL/well) containing the test substance and was incubated at 35° C. overnight. The lowest concentration of the test substance at which no bacterial growth was macroscopically observed was determined as the MIC.

Series [2] deals with S. aureus F-3095. The series is described as above. Conditions: Staphylococcus aureus. Here is the method:
as §1, §2

The nature of series [3]: Cytotoxicity test (XTT). Conditions: African green monkey, vero cells, 3 days incubation, absorbance 450 nm, read-out: CC50 (concentration when cell proliferation was inhibited by 50%). Here is the method:
Each test substance was dissolved in dimethyl sulfoxide and was prepared to each concentration with E-MEM containing 10% FBS, and then 0.1 mL of this solution was dispensed into each well of a 96-well microplate. A vero cell suspension containing 3×10^4 cells/mL was prepared with E-MEM containing 10% FBS, and 0.1 mL of the suspension was inoculated to each well. After incubation in 5% CO2 at 37° C. for 3 days, 50 μL of E-MEM containing 1 mg/mL of 2,3-bis-(2-methoxy-4-nitro-5-sulfophenyl)-5-[(phenylamino)carbonyl]-2H-tetrazolium, inner salt, monosodium salt (XTT) and 25 μM of phenazine methosulfate (PMS) was added to each well. After about 2 hours, the absorbance at 450 nm was measured with a microplate reader.
The absorbance ratio of each well supplied with the test substance and the control not containing the test substance was calculated, and the concentration of each compound when cell proliferation was inhibited by 50% (CC50; μg/mL) was calculated.

[4] abbreviates: F3095, read-out: MIC (μg/mL) S. aureus F-3095.
[5] abbreviates: CAMHB, 35° C. overnight, lowest concentration with no macroscopic growth.
Setting [6] is: F3095, F-3095 (MDRSA), CAMHB, 35° C. overnight, lowest concentration with no macroscopic growth, read-out: MIC (μg/mL) S. aureus F-3095.

As for `CCc1ccc(CNC2CCN(CCn3c(=O)ccc4ncc(OC)cc43)CC2)nc1` [Example 123, 1-(2-(4-(((5-ethylpyridin-2-yl)methyl)amino)piperidin-1-yl)ethyl)-7-methoxy-1,5-naphthyridin-2(1H)-one hydrochloride], the results for the MIC in series [1] and in series [2] (setting [4]) were 0.0313 µg/mL and 0.125 µg/mL, respectively.
For `CCc1ncc(CNC2CCN(CCn3c(=O)ccc4ncc(OC)cc43)CC2)cc1F` [Example 137, 1-(2-(4-(((6-ethyl-5-fluoropyridin-3-yl)methyl)amino)piperidin-1-yl)ethyl)-7-methoxy-1,5-naphthyridin-2(1H)-one hydrochloride] the same measures were 0.0313 µg/mL and 0.0625 µg/mL.
In the case of `O=C1CSc2cc(Cl)c(CNC3CCN(CCn4c(=O)ccc5ccncc54)CC3)nc2N1` [Example 30, 7-chloro-6-(((1-(2-(2-oxo-1,7-naphthyridin-1(2H)-yl)ethyl)piperidin-4-yl)amino)methyl)-2H-pyrido(3,2-b)(1,4)thiazin-3(4H)-one], the MIC in series [1] (setting [5]) and in series [2] (setting [6]) was 0.0313 µg/mL (≈ 0.0645 µM) throughout. Also, in series [3], the CC50 at 3 days was at least 51.2 µg/mL.
`COc1ccc2ncc(=O)n(CCN3CCC(NCc4cc5c(cn4)OCCO5)CC3)c2n1` [Example 10, 4-(2-(4-((2,3-dihydro(1,4)dioxino(2,3-c)pyridin-7-ylmethyl)amino)piperidin-1-yl)ethyl)-6-methoxypyrido(2,3-b)pyrazin-3(4H)-one hydrochloride]: the MIC in series [1] and in series [2] (setting [4]) was 0.0156 µg/mL in each case. The CC50 at 3 days in series [3] was at least 51.2 µg/mL.
For `COc1ccc2ccc(=O)n(CCN3CCC(NCc4cc5c(cn4)OCCO5)CC3)c2n1` [Example 45, 1-(2-(4-((2,3-dihydro(1,4)dioxino(2,3-c)pyridin-7-ylmethyl)amino)piperidin-1-yl)ethyl)-7-methoxy-1,8-naphthyridin-2(1H)-one hydrochloride], the MIC came out at 0.0313 µg/mL in series [1] and 0.0625 µg/mL in series [2] (setting [4]).
Regarding `O=c1ccc2ccncc2n1CCN1CCC(NCc2cc(-c3cccs3)on2)CC1` [Example 35, 1-(2-(4-(((5-(2-thienyl)isoxazol-3-yl)methyl)amino)piperidin-1-yl)ethyl)-1,7-naphthyridin-2(1H)-one hydrochloride], the MIC in series [1] and in series [2] (setting [4]) was 0.0313 µg/mL throughout. In series [3], the CC50 at 3 days is at least 51.2 µg/mL.
For the compound `O=c1ccc2ncc(F)cc2n1CCN1CCC(NCc2cc3c(cn2)CCCO3)CC1` [Example 162, 1-(2-(4-((3,4-dihydro-2H-pyrano(3,2-c)pyridin-7-ylmethyl)amino)piperidin-1-yl)ethyl)-7-fluoro-1,5-naphthyridin-2(1H)-one hydrochloride], the MIC came out at 0.0313 µg/mL in series [1] and 0.0625 µg/mL in series [2] (setting [4]).
In the case of `COc1cnc2ccc(=O)n(CCN3CCC(NCc4cnc5c(c4)OCCO5)CC3)c2c1` [Example 80, 1-(2-(4-((2,3-dihydro(1,4)dioxino(2,3-b)pyridin-7-yl)methylamino)piperidin-1-yl)ethyl)-7-methoxy-1,5-naphthyridin-2(1H)-one hydrochloride], the MIC came to 0.0078 µg/mL in series [1] and 0.0156 µg/mL in series [2] (setting [4]). Moreover, the CC50 at 3 days in series [3] was at least 51.2 µg/mL.
On to `O=C1CSc2ccc(CNC3CCN(CCn4c(=O)ccc5ccncc54)CC3)nc2N1` [Example 33, 6-(((1-(2-(2-oxo-1,7-naphthyridin-1(2H)-yl)ethyl)piperidin-4-yl)amino)methyl)-2H-pyrido(3,2-b)(1,4)thiazin-3(4H)-one], for which the MIC in series [1] (setting [5]) and in series [2] (setting [6]) was 0.0313 µg/mL (≈ 0.0695 µM) each time. For the same compound, the CC50 at 3 days in series [3] is at least 51.2 µg/mL.
As to `COc1cnc2ccc(=O)n(CCN3CCC(NCc4cnc(C)c(F)c4)CC3)c2n1` [Example 96, 5-(2-(4-(((5-fluoro-6-methylpyridin-3-yl)methyl)amino)piperidin-1-yl)ethyl)-3-methoxypyrido(2,3-b)pyrazin-6(5H)-one], the MIC in series [1] (setting [5]) and in series [2] (setting [6]) was 0.0625 µg/mL (≈ 0.147 µM) throughout. For the same compound, in series [3], the CC50 at 3 days was at least 51.2 µg/mL.
`COc1cnc2ccc(=O)n(CCN3CCC(NCc4ccc5c(n4)NC(=O)CS5)CC3)c2c1` [Example 90, 6-(((1-(2-(7-methoxy-2-oxo-1,5-naphthyridin-1(2H)-yl)ethyl)piperidin-4-yl)amino)methyl)-2H-pyrido(3,2-b)(1,4)thiazin-3(4H)-one]: the MIC in series [1] (setting [5]) and in series [2] (setting [6]) was 0.0313 µg/mL (≈ 0.0651 µM) throughout. Also, in series [3], the CC50 at 3 days was at least 51.2 µg/mL.
Turning to `COc1cnc2ccc(=O)n(CCN3CCC(NCc4cncc(-c5ccco5)c4)CC3)c2c1` [Example 147, 1-(2-(4-(((5-(2-furyl)pyridin-3-yl)methyl)amino)piperidin-1-yl)ethyl)-7-methoxy-1,5-naphthyridin-2(1H)-one], the MIC in series [1] (setting [5]) was found to be 0.0313 µg/mL (≈ 0.0681 µM); in series [2] (setting [6]), 0.0625 µg/mL (≈ 0.136 µM).
Take `COc1cnc2ccc(=O)n(CCN3CCC(NCc4cc5c(cn4)OCCC5)CC3)c2c1` [Example 144, 1-(2-(4-((3,4-dihydro-2H-pyrano(2,3-c)pyridin-6-ylmethyl)amino)piperidin-1-yl)ethyl)-7-methoxy-1,5-naphthyridin-2(1H)-one hydrochloride]: the MIC in series [1] and in series [2] (setting [4]) was 0.0313 µg/mL throughout.
Consider `COc1cnc2ccc(=O)n(CCN3CCC(NCc4ccc5c(n4)NC(=O)CO5)CC3)c2c1` [Example 79, 1-(2-(4-((3-oxo-3,4-dihydro-2H-pyrido(3,2-b)(1,4)oxazin-6-yl)methylamino)piperidin-1-yl)ethyl)-7-methoxy-1,5-naphthyridin-2(1H)-one hydrochloride], for which the MIC in series [1] turned out to be 0.0078 µg/mL; in series [2] (setting [4]), 0.0156 µg/mL. For the same compound, in series [3], the CC50 at 3 days is at least 51.2 µg/mL.
In the case of `Cc1cc(=O)n(CCN2CCC(NCc3cc4c(cn3)OCCO4)CC2)c2cc(F)cnc12` [Example 146, 1-(2-(4-((2,3-dihydro(1,4)dioxino(2,3-c)pyridin-7-ylmethyl)amino)piperidin-1-yl)ethyl)-7-fluoro-4-methyl-1,5-naphthyridin-2(1H)-one hydrochloride], the MIC in series [1] and in series [2] (setting [4]) was 0.0625 µg/mL in each case.
On to `COc1cnc2ccc(=O)n(CCN3CCC(NCc4cc(-c5ccsc5)on4)CC3)c2c1` [Example 133, 7-methoxy-1-(2-(4-(((5-(3-thienyl)isoxazol-3-yl)methyl)amino)piperidin-1-yl)ethyl)-1,5-naphthyridin-2(1H)-one], for which the MIC is 0.0078 µg/mL (≈ 0.0168 µM) in series [1] (setting [5]) and 0.0156 µg/mL (≈ 0.0335 µM) in series [2] (setting [6]).
On to `COc1cnc2ccc(=O)n(CCN3CCC(NCc4cncc(-c5cccs5)c4)CC3)c2c1` [Example 141, 7-methoxy-1-(2-(4-(((5-(2-thienyl)pyridin-3-yl)methyl)amino)piperidin-1-yl)ethyl)-1,5-naphthyridin-2(1H)-one hydrochloride], for which the MIC in series [1] and in series [2] (setting [4]) was 0.0313 µg/mL throughout.
With `COc1ccc2ncc(=O)n(CCN3CCC(NCc4ccc5c(n4)NC(=O)CS5)CC3)c2n1` [Example 55, 6-(((1-(2-(6-methoxy-3-oxopyrido(2,3-b)pyrazin-4(3H)-yl)ethyl)piperidin-4-yl)amino)methyl)-2H-pyrido(3,2-b)(1,4)thiazin-3(4H)-one], the MIC in series [1] (setting [5]) stood at 0.0039 µg/mL (≈ 0.0081 µM); in series [2] (setting [6]), 0.0078 µg/mL (≈ 0.0162 µM). For the same compound, the CC50 at 3 days in series [3] is at least 51.2 µg/mL.
As for `COc1cnc2ccc(=O)n(CCN3CCC(NCc4cc5c(cn4)OCCCO5)CC3)c2c1` [Example 118, 1-(2-(4-((3,4-dihydro-2H-(1,4)dioxepino(2,3-c)pyridin-8-ylmethyl)amino)piperidin-1-yl)ethyl)-7-methoxy-1,5-naphthyridin-2(1H)-one hydrochloride], the MIC in series [1] and in series [2] (setting [4]) was 0.0625 µg/mL in each case.
For `COc1cnc2ccc(=O)n(CCN3CCC(NCc4ccc(C)c(F)c4)CC3)c2c1` [Example 17, 1-(2-(4-((3-fluoro-4-methylbenzyl)amino)piperidin-1-yl)ethyl)-7-methoxy-1,5-naphthyridin-2(1H)-one hydrochloride], the MIC in series [1] turned out to be 0.0039 µg/mL; in series [2] (setting [4]), 0.0313 µg/mL.
`O=c1ccc2ncc(F)cc2n1CCN1CCC(NCc2cc(-c3ccco3)on2)CC1` [Example 143, 7-fluoro-1-(2-(4-(((5-(2-furyl)isoxazol-3-yl)methyl)amino)piperidin-1-yl)ethyl)-1,5-naphthyridin-2(1H)-one]: the MIC in series [1] (setting [5]) and in series [2] (setting [6]) was 0.0313 µg/mL (≈ 0.0715 µM) throughout.
As for `COc1ccc2ccc(=O)n(CCN3CCC(NCc4ccc5c(c4)OCCO5)CC3)c2n1` [Example 44, 1-(2-(4-((2,3-dihydro-1,4-benzodioxin-6-ylmethyl)amino)piperidin-1-yl)ethyl)-7-methoxy-1,8-naphthyridin-2(1H)-one hydrochloride], the MIC in series [1] and in series [2] (setting [4]) was 0.0313 µg/mL each time.
